Reference: US20240215576A1, “HEAT-RESISTANT MOLD GROWTH INHIBITOR, FOOD AND DRINK IN WHICH GROWTH OF HEAT-RESISTANT MOLD IS INHIBITED, AND METHOD FOR INHIBITING GROWTH OF HEAT-RESISTANT MOLD” (NIPPON SHINYAKU CO., LTD., priority 2021, published 2024)
Counter-ions that a name gives are not always drawn.

How the values were obtained:
[1] = system: N. primulina; assay: Growth of N. primulina in Trypticase soy broth medium stored 7 days at 25° C.; format: cell-based, Neosartorya primulina; settings: for Growth of N. primulina after lapse of 7 days under storage at 25° C.: concentration 1000 ppm; for growth inhibition effect against N. primulina: 1000 ppm
Protocol: (§1) Diethyl fumarate and 2-decenoic acid were prepared for use in Examples. In addition, the following components reported to have a growth inhibition effect against normal mold (non-heat-resistant mold) were prepared for use in Comparative Examples: palmitic acid, trans-anethole, benzyl alcohol, cinnamic acid, hinokitiol, salicylic acid, hexanal, 2-mercapto benzothiazole, p-cymene, 1,8-cineole, α-pinene, estragole, 4-hydroxy-3,5-dimethoxybenzoic acid, and linalyl acetate. Then, each component was added to a medium of Trypticase soy broth such that the concentration of each component was as shown in Table 3 below.
(§2) These media were stored for 7 days under an atmosphere at 25° C. […] In Table, those showing the growth are represented by “+,” and those showing no growth are represented by “−.”

[2] = system: B. fulva; assay: Growth of B. fulva in Trypticase soy broth medium stored 7 days at 25° C.; format: cell-based, Byssochlamys fulva; settings: for Growth of B. fulva after lapse of 7 days under storage at 25° C.: concentration 1000 ppm; for growth inhibition effect against B. fulva: 1000 ppm
Protocol: as §1, §2

[3] = system: B. fulva; assay: Growth of B. fulva in tomato juice stored at 25° C.; format: cell-based, Byssochlamys fulva; settings: for generation of B. fulva after the lapse of 14 days: 25° C., high concentration of the active component (270 ppm); for Growth of B. fulva, 3 days / Growth of B. fulva, 5 days / Growth of B. fulva, 7 days / Growth of B. fulva, 10 days / Growth of B. fulva, 14 days: storage at 25° C.
Protocol: Diethyl fumarate or 2-decenoic acid was added to tomato juice (100% pure, salt-free) such that the concentration of the component was as shown in Table 1 below. […] In Table 1, those showing the growth of B. fulva are represented by “+,” and those showing no growth are represented by “−.”

[4] = system: N. primulina; assay: Growth of N. primulina in tomato juice stored at 25° C.; format: cell-based, Neosartorya primulina; set-up: key to Growth of N. primulina, 5 days / Growth of N. primulina, 7 days / Growth of N. primulina, 10 days / Growth of N. primulina, 14 days: those showing the growth of N. primulina are represented by “+,”; those showing no growth are represented by “−.”; settings: for growth inhibition effect against N. primulina after the lapse of 14 days: high concentration of the active component (270 ppm); for Growth of N. primulina, 3 days / Growth of N. primulina, 5 days / Growth of N. primulina, 7 days / Growth of N. primulina, 10 days / Growth of N. primulina, 14 days: storage at 25° C.
Protocol: Diethyl fumarate or 2-decenoic acid was added to tomato juice (100% pure, salt-free) such that the concentration of the component was as shown in Table 2 below. […] In Table 2, those showing the growth of N. primulina are represented by “+,” and those showing no growth are represented by “−.”

Compound: CC(C)c1cccc(=O)c(O)c1 [Hinokitiol]
- Growth of N. primulina after lapse of 7 days under storage at 25° C. [1]: +
- Growth of B. fulva after lapse of 7 days under storage at 25° C. [2]: +

Compound: C/C=C/c1ccc(OC)cc1 [Trans-anethole]
- Growth of N. primulina after lapse of 7 days under storage at 25° C. [1]: +
- Growth of B. fulva after lapse of 7 days under storage at 25° C. [2]: +

Compound: CCCCCC=O [Hexanal]
- Growth of N. primulina after lapse of 7 days under storage at 25° C. [1]: +
- Growth of B. fulva after lapse of 7 days under storage at 25° C. [2]: +

Compound: O=C(O)c1ccccc1O [Salicylic acid]
- Growth of N. primulina after lapse of 7 days under storage at 25° C. [1]: +
- Growth of B. fulva after lapse of 7 days under storage at 25° C. [2]: +

Compound: COc1cc(C(=O)O)cc(OC)c1O [4-Hydroxy-3,5-dimethoxybenzoic acid]
- Growth of N. primulina after lapse of 7 days under storage at 25° C. [1]: +
- Growth of B. fulva after lapse of 7 days under storage at 25° C. [2]: +

Compound: CCOC(=O)/C=C/C(=O)OCC [Diethyl fumarate, diethyl (E)-but-2-enedioate]
- growth inhibition effect against N. primulina [1]: exhibit the growth inhibition effect
- Growth of N. primulina after lapse of 7 days under storage at 25° C. [1]: −
- generation of B. fulva after the lapse of 14 days [3]: no generation
- Growth of B. fulva, 3 days ([3]; 70 ppm): −
- Growth of B. fulva, 5 days ([3]; 70 ppm): −
- Growth of B. fulva, 7 days ([3]; 70 ppm): −
- Growth of B. fulva, 10 days ([3]; 70 ppm): +
- Growth of B. fulva, 14 days ([3]; 70 ppm): +
- Growth of B. fulva, 3 days ([3]; 270 ppm): −
- Growth of B. fulva, 5 days ([3]; 270 ppm): −
- Growth of B. fulva, 7 days ([3]; 270 ppm): −
- Growth of B. fulva, 10 days ([3]; 270 ppm): −
- Growth of B. fulva, 14 days ([3]; 270 ppm): −
- growth inhibition effect against B. fulva [2]: exhibit the growth inhibition effect
- Growth of B. fulva after lapse of 7 days under storage at 25° C. [2]: −
- generation of N. primulina after the lapse of 10 days ([4]; 25° C., 10 days): no generation
- growth inhibition effect against N. primulina after the lapse of 14 days ([4]; 25° C.): the effect is maintained
- Growth of N. primulina, 3 days ([4]; 70 ppm): −
- Growth of N. primulina, 5 days ([4]; 70 ppm): −
- Growth of N. primulina, 7 days ([4]; 70 ppm): −
- Growth of N. primulina, 10 days ([4]; 70 ppm, 10 days): −
- Growth of N. primulina, 14 days ([4]; 70 ppm): +
- Growth of N. primulina, 3 days ([4]; 270 ppm): −
- Growth of N. primulina, 5 days ([4]; 270 ppm): −
- Growth of N. primulina, 7 days ([4]; 270 ppm): −
- Growth of N. primulina, 10 days ([4]; 270 ppm, 10 days): −
- Growth of N. primulina, 14 days ([4]; 270 ppm): −

Compound: Cc1ccc(C(C)C)cc1 [p-Cymene]
- Growth of N. primulina after lapse of 7 days under storage at 25° C. [1]: +
- Growth of B. fulva after lapse of 7 days under storage at 25° C. [2]: +

Compound: CCCCCCC/C=C/C(=O)O [2-Decenoic acid, (E)-dec-2-enoic acid]
- growth inhibition effect against N. primulina [1]: exhibit the growth inhibition effect
- Growth of N. primulina after lapse of 7 days under storage at 25° C. [1]: −
- generation of B. fulva after the lapse of 14 days [3]: no generation
- Growth of B. fulva, 3 days ([3]; 70 ppm): −
- Growth of B. fulva, 5 days ([3]; 70 ppm): −
- Growth of B. fulva, 7 days ([3]; 70 ppm): −
- Growth of B. fulva, 10 days ([3]; 70 ppm): +
- Growth of B. fulva, 14 days ([3]; 70 ppm): +
- Growth of B. fulva, 3 days ([3]; 270 ppm): −
- Growth of B. fulva, 5 days ([3]; 270 ppm): −
- Growth of B. fulva, 7 days ([3]; 270 ppm): −
- Growth of B. fulva, 10 days ([3]; 270 ppm): −
- Growth of B. fulva, 14 days ([3]; 270 ppm): −
- growth inhibition effect against B. fulva [2]: exhibit the growth inhibition effect
- Growth of B. fulva after lapse of 7 days under storage at 25° C. [2]: −
- growth inhibition effect against N. primulina after the lapse of 14 days ([4]; 25° C.): the effect is maintained
- Growth of N. primulina, 3 days ([4]; 70 ppm): −
- Growth of N. primulina, 5 days ([4]; 70 ppm): +
- Growth of N. primulina, 7 days ([4]; 70 ppm): +
- Growth of N. primulina, 10 days ([4]; 70 ppm, 10 days): +
- Growth of N. primulina, 14 days ([4]; 70 ppm): +
- Growth of N. primulina, 3 days ([4]; 270 ppm): −
- Growth of N. primulina, 5 days ([4]; 270 ppm): −
- Growth of N. primulina, 7 days ([4]; 270 ppm): −
- Growth of N. primulina, 10 days ([4]; 270 ppm, 10 days): −
- Growth of N. primulina, 14 days ([4]; 270 ppm): −

Compound: CC12CCC(CC1)C(C)(C)O2 [1,8-Cineole]
- Growth of N. primulina after lapse of 7 days under storage at 25° C. [1]: +
- Growth of B. fulva after lapse of 7 days under storage at 25° C. [2]: +

Compound: CC1=CCC2CC1C2(C)C (stereo not drawn) [α-Pinene]
- Growth of N. primulina after lapse of 7 days under storage at 25° C. [1]: +
- Growth of B. fulva after lapse of 7 days under storage at 25° C. [2]: +

Compound: CCCCCCCCCCCCCCCC(=O)O [Palmitic acid]
- Growth of N. primulina after lapse of 7 days under storage at 25° C. [1]: +
- Growth of B. fulva after lapse of 7 days under storage at 25° C. [2]: +

Compound: C=CCc1ccc(OC)cc1 [Estragole]
- Growth of N. primulina after lapse of 7 days under storage at 25° C. [1]: +
- Growth of B. fulva after lapse of 7 days under storage at 25° C. [2]: +

Compound: OCc1ccccc1 [Benzyl alcohol]
- Growth of N. primulina after lapse of 7 days under storage at 25° C. [1]: +
- Growth of B. fulva after lapse of 7 days under storage at 25° C. [2]: +

Compound: O=C(O)C=Cc1ccccc1 [Cinnamic acid]
- Growth of N. primulina after lapse of 7 days under storage at 25° C. [1]: +
- Growth of B. fulva after lapse of 7 days under storage at 25° C. [2]: +

Compound: C=CC(C)(CCC=C(C)C)OC(C)=O (stereo not drawn) [Linalyl acetate]
- Growth of N. primulina after lapse of 7 days under storage at 25° C. [1]: +
- Growth of B. fulva after lapse of 7 days under storage at 25° C. [2]: +

Compound: Sc1nc2ccccc2s1 [2-Mercapto benzothiazole]
- Growth of N. primulina after lapse of 7 days under storage at 25° C. [1]: +
- Growth of B. fulva after lapse of 7 days under storage at 25° C. [2]: +
